The results in this text go back to US20020082262A1, “Substituted bicyclic compounds for treating multidrug resistance” (priority 2000, published 2002).

This experiment relates to NIH-MDR1-G185 cells. The experiment in a line: Fluorescent Substrate Accumulation Assay (BODIPY-FL Taxol accumulation). It is filed as cell-based. Particulars: MDR modulator 10 micromolar, BODIPY-FL Taxol 500 nM, 40 min at 37° C.; fluorescence in NIH-MDR1-G185 cells in presence / absence of modulator. On the procedure: Fluorescent Substrate Accumulation Assay NIH-MDR1-G185 cells (obtained from M. Gottesman, NIH) were harvested and resuspended in RPMI-1640 containing L-glutamine, 10% Cosmic Calf Serum and penicillin-streptomycin. Cell suspension aliquots of 175 microliters (1×10^5 cells) were added to individual wells of a 96 well microtiter plate and preincubated for 15 min at 37° C. with 20 microliters MDR modulator diluted in cell culture media to give a final concentration of 10 micromolar. Control wells received no modulating agent. BODIPY-FL Taxol (Molecular Probes, Eugene, Oreg.) was added to each well in 10 microliter aliquots to give a final concentration of 500 nM and cells were incubated for 40 min at 37° C. Cells were centrifuged at 100×g for 5 min at 4° C. and the cell pellet washed with 200 microliters cold PBS to remove fluorescent medium from wells. Cells were centrifuged once more, media removed, and cells resuspended in 200 microliters cold PBS. Fluorescence accumulation was measured in a fluorescence plate reader fitted with an excitation filter of 485 nm and an emission filter of 538 nm. BODIPY-FL taxol accumulation in the cells was calculated as follows: Accumulation Index=(fluorescence in NIH-MDR1-G185 cells in the presence of modulator)/(fluorescence in NIH-MDR1-G185 cells in absence of modulator)
For the compound `O=C(CN1CCN(C[C@@H](O)COc2cccc3ncccc23)CC1)N[C@@H](Cc1cccnc1)C(=O)N1CCC(C(=O)NC(CCCc2ccccc2)CCCc2ccccc2)CC1` [Example 27, 1-(N-{1-[2-(R)-hydroxy-3-(quinolin-5-yloxy)-propyl]-piperazine-4-acetyl}-[3-(3-pyridyl)-alanyl])-piperidine-4-carboxylic acid [4-phenyl-1(3-phenyl-propyl)-butyl]-amide], the “Accumulation Index” value is 8. Next, `O=C(CN1CCN(C[C@@H](O)COc2cccc3ncccc23)CC1)NC[C@H]1CC[C@H](C(=O)NC(CCCc2ccccc2)CCCc2ccccc2)CC1` [Example 22, N-{1-[2-(R)-hydroxy-3-(quinolin-5-yloxy)-propyl]-piperazine-4-acetyl}-trans-4-aminomethyl-1-cyclohexanecarboxylic acid [4-phenyl-1-(3-phenyl-propyl)-butyl]-amide]: 7.

On to `O=C(C(CCCc1ccccc1)CCCc1ccccc1)N1CCN(C2CCN(C[C@@H](O)COc3cccc4ncccc34)CC2)CC1` [Example7, 4-[5-phenyl-2-(3-phenyl-propyl)-pentanoic acid {1-[2-hydroxy-3-(quinolin-5-yloxy)-propyl]-piperazin-4-yl}-amide]piperidine], for which the “Accumulation Index” value was 9. Next, “1-[5-Phenyl-2-(3-phenyl-propyl)-pentanoic acid {4-[2-hydroxy-3-(quinolin-5-yloxy)-propyl]-piperazin-4-yl}-amide]piperidine [Example 10]”: 8; `O=C(C(CCCc1ccccc1)CCCc1ccccc1)N1CCC(NC2CCN(C[C@@H](O)COc3cccc4ncccc34)CC2)CC1` [Example 15]: 6.
